In ChEMBL document CHEMBL4033655, “Part I: Design, synthesis and biological evaluation of novel pyrazole-benzimidazole conjugates as checkpoint kinase 2 (Chk2) inhibitors with studying their activities alone and in combination with genotoxic drugs” (Eur J Med Chem, 2017):

Assay: Acute toxicity in Sprague-Dawley rat assessed as mortality administered orally as single dose measured up to 1 month
Conditions: in vivo, po

Question: With Cc1nn(-c2ccccc2)c(Oc2ccc(-c3nc4cc(C(=O)O)ccc4[nH]3)cc2)c1[N+](=O)[O-] as the compound, how does the LD50 read?
Answer: 400 mg/kg
